Experiment [1] deals with T1, KDM7A (Homo sapiens, UniProt Q6ZMT4).
T1 construct: isolated enzyme
T1 sequence (Q6ZMT4 1-941): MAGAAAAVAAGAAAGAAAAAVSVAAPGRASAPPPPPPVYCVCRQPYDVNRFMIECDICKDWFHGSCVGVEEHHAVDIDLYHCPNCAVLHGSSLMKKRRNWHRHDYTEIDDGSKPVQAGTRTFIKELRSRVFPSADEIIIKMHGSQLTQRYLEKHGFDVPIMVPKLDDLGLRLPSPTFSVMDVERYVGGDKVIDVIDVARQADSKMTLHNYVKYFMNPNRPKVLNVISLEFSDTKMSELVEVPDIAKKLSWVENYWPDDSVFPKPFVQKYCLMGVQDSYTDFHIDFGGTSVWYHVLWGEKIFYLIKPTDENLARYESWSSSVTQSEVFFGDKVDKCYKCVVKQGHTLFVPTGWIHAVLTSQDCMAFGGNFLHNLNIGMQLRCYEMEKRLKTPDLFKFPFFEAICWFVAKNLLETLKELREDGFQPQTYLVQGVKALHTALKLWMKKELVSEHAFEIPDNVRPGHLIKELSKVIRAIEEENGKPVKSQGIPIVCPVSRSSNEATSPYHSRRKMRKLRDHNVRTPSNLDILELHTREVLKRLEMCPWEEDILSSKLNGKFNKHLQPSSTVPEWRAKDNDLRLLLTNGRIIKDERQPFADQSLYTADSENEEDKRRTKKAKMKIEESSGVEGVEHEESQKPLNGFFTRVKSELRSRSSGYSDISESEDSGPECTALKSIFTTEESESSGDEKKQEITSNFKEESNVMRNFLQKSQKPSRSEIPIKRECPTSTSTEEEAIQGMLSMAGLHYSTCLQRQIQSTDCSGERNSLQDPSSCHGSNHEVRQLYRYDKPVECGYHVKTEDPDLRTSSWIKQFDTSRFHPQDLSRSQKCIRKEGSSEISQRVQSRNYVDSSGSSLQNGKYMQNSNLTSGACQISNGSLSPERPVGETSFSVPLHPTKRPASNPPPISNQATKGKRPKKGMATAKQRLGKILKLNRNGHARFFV
Description: AlphaScreen demethylase assay. The class given is biochemical. In general terms: Bead proximity is the source of the signal in Alpha formats.

Experiment [2] has as its target T2, JMJD2A (KDM4A) (Homo sapiens, UniProt O75164).
T2 sequence (O75164 1-1064): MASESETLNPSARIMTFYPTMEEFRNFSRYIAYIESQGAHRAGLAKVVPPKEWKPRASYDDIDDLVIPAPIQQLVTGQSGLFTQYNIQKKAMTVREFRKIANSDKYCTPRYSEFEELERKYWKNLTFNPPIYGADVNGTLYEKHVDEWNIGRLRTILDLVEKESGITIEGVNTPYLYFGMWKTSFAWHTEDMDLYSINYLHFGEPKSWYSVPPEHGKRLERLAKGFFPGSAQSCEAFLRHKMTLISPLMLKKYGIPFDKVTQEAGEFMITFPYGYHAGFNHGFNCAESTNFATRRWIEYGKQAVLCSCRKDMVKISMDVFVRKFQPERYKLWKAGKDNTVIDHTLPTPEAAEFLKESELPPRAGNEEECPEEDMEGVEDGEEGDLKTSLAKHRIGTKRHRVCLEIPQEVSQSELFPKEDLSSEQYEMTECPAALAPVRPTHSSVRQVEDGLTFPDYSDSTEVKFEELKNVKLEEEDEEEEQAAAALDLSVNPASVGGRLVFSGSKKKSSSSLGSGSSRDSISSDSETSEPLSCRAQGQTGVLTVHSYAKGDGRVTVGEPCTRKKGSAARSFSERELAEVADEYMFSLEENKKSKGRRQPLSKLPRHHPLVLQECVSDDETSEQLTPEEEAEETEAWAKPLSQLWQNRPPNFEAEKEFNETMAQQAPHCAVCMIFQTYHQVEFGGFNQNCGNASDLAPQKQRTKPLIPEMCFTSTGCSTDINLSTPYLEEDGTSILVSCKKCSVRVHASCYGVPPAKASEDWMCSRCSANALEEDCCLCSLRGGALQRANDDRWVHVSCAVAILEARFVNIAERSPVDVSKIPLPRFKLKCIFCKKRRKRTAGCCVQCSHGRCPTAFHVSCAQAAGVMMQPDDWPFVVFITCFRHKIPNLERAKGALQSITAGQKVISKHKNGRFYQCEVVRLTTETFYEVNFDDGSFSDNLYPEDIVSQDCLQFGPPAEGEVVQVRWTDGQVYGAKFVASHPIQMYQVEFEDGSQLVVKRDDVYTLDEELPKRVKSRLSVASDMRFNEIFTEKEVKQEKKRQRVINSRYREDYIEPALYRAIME
Description: biochemical. Further details: AlphaScreen histone demethylase activity assay. Conditions: read-out: KDM4A pIC50 (converted). From the text: A base‐mediated 5‐endo‐trig cyclization of a C‐2‐substituted aromatic imine afforded the racemic indoline core with two adjacent stereocenters. Subsequent acylation of the indoline ring system conferred stability towards oxidation and provided a handle for modulating polarity. Finally, metal‐catalysed cross‐coupling of the aryl bromide provided access to a variety of linkers between the indoline core and pyrrolidine capping group. In total, 45 racemic compounds were synthesized, and IC50 values for inhibition of KDM2A were determined using two orthogonal enzyme activity assays: AlphaScreen25 and RapidFire MS26 (see Section S3.1 in the Supporting Information for complete inhibition data). Key structure–activity relationships are summarized below (Scheme 1 B, compounds 2–12). […] In immunofluorescence assays using HeLa cells ectopically expressing catalytically active KDM2A, a dose‐dependent increase in H3K36me2 staining was observed upon incubation with (S,S)‐6, reflecting augmented cellular H3K36me2 levels (Figure 2 A and Section S3.3). […] To profile its selectivity, (S,S)‐6 was tested for inhibitory activity against a panel of KDMs, methyllysine binding motifs, and epigenetic enzymes.

Experiment [3] has as its target T3, KDM2A (Homo sapiens, UniProt Q9Y2K7).
T3 construct: isolated enzyme
T3 sequence (Q9Y2K7 1-517 limits assumed): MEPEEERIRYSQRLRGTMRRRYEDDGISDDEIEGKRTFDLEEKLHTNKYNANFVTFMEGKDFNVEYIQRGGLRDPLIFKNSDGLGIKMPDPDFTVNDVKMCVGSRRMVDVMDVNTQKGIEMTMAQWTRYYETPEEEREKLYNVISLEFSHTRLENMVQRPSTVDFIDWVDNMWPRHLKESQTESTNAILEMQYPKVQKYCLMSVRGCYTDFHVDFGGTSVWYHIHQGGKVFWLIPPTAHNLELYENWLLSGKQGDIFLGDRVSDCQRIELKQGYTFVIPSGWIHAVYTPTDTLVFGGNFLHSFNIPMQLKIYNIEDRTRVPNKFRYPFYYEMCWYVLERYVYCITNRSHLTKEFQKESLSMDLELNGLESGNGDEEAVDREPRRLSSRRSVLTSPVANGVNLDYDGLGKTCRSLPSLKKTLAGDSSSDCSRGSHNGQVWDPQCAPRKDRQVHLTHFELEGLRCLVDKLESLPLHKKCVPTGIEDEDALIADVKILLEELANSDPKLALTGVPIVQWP
Description: demethylase activity assay (RapidFire MS / AlphaScreen). The class given is biochemical. Conditions: not competitive with 2-OG or peptide substrate.

For the molecule `CC(=O)N1c2ccccc2[C@@](C#N)(c2ccccc2)[C@@H]1c1cncc(CCCCCCCN2CCCC2)c1` [(S,S)-6], the values for the IC50 in experiment [1], in experiment [2] and in experiment [3] were 190 nM, more than 20000 nM and 160 nM, respectively.

These data come from article PMC5725665, “Discovery of a Highly Selective Cell‐Active Inhibitor of the Histone Lysine Demethylases KDM2/7” (Angewandte Chemie (International Ed. in English), 2017).
